From patent US10317409B2, “Glycosylation site-specific antibodies and anti-cancer compounds” (Detroit R&D, Inc., priority 2013, dated 2019)
“Also recorded” adds a separate entry of the source.

Assays:
[1] = tested on: O-GlcNAcylated c-myc in MCF-7 cells; assay: Western blot of O-GlcNAcylated c-myc levels in MCF-7 cells; assay type: cell-based; settings: for O-GlcNAcylated c-myc level: MCF-7, 4 hr
Description: MCF-7 breast cancer cells were treated for 24 hr with 1% DMSO, with an O-GlcNAcase inhibitor, streptozotocin (STZ), with N6-methyladenosine 5′-monophosphate (an O-GlcNAcase inhibitor discovered through by screening with the pseudofluorescent substrate 4-methylumbelliferol (4-MU)-GlcNAc (7)) or with media (control) (FIG. 5).
(§1) O-GlcNAcase inhibitors, which increased O-GlcNAcylation levels of proteins by preventing cleavage of an O-GlcNAc moiety of Ser or Thr residues, were identified using the antibodies of the present invention. MCF-7 breast cancer cells (FIG. 6. Panel A, Lanes 1-4) and MCF10A normal breast cells (FIG. 6. Panel A, Lanes 5-8) were treated for 4 hr with 1% DMSO (FIG. 6, Panel A, Lanes 1 and 5), the O-GlcNAcase inhibitors acetazolamide (FIG. 6, Panel A, Lanes 2 and 6) and N6-methyladenosine 5′-monophosphate (FIG. 6, Panel A, Lanes […] and 7) or media (control) (FIG. 6, Panel A, Lanes 4 and 8). Western blot analysis (8-16% gel) was carried out with cell lysates (20 μg/lane) using antibodies for O-GlcNAcylated c-myc (Peptide #1-G, 5,000-fold diluted).
(§2) Western blot analysis was carried out with 10% gel electrophoresis using nuclear lysates obtained from MCF-7 cells with antibodies for O-GlcNAcylated c-myc (Peptide #2-0). […] There was no increase in unmodified c-myc protein after ketoconazole treatment as verified with antibodies for unmodified c-myc (Peptide #2-N) by Western blot analysis.
MCF-7 cells were treated for 4 hr with 1% DMSO (negative control) or 2 mM ketoconazole in DMSO and an O-GlcNAcylated c-myc band was detected using a second antibody for O-GlcNAcylated c-myc (Peptide #1-G).

[2] = tested on: O-GlcNAcylated p53 in MCF-7 cells; assay: Western blot of O-GlcNAcylated p53 levels in MCF-7 cells; assay type: cell-based; settings: MCF-7, 24 hr, 2 mM, cytosol-containing supernatants, FIG. 7B
Description: MCF-7 cells were grown for 24 hr with treatment of 1% DMSO (negative control) or 2 mM STZ or acetazolamide dissolved in DMSO or 2 mM N6-methyladenosine 5′-monophosphate dissolved in media. The cells were harvested and cytosol-containing supernatants were obtained.

[3] = tested on: O-GlcNAcylated c-myc in MCF10A cells; assay: Western blot of O-GlcNAcylated c-myc levels in MCF10A cells; assay type: cell-based; settings: 4 hr treatment, cell lysates, FIG. 6A
Description: as §1

SW480 colon cancer cells [4] = assay: Cell proliferation assay (MTT); assay type: cell-based, human
Excerpt: (§3) […] The cell number was counted after staining the cells with 3-(4,5-dimethylthiazol-2-yl)2,5-diphenyl-tetrazolium bromide (MTT).

HT29 colon cancer cells [5] = assay: Cell proliferation assay (MTT); assay type: cell-based, human
Excerpt: as §3

[6] = tested on: Thr-58-O-GlcNAcylated c-myc in PANC-1 cells; assay: Thr-58-O-GlcNAcylated c-myc expression in PANC-1 cells; assay type: cell-based; settings: PANC-1, after ketoconazole treatment
[7] = tested on: MCF-7 breast cancer cells; assay: Cell proliferation; assay type: cell-based
Description: (§4) Cell proliferation assays were carried out after seeding 3,000-5,000 cells in a 96-well plate with and without treatment of 50 μM ketoconazole dissolved in DMSO (final concentration, 1%) for 72 hr (FIG. 8, Panel A). The cell number was counted after staining the cells with 3-(4,5-dimethylthiazol-2-yl)2,5-diphenyl-tetrazolium bromide (MTT).

[8] = tested on: MCF10CA1A breast cancer cells; assay: QCM ECMatrix cell invasion assay; assay type: cell-based; settings: 100 μM, 72 hr
Description: (§5) Cell invasiveness of SW480 and HT29 human colon adenocarcinoma cells and MCF10CA1A breast cancer cells with and without 72 hr treatment with 100 μM ketoconazole was studied in 24-well plates using the QCM ECMatrix cell invasion assay kit (EMD Millipore).

MCF-7 and MCF10A cells = assay: Lactate dehydrogenase (LDH) cytotoxicity assay; assay type: cell-based; settings: 2 mM, 4 hr, LDH release
Description: Increased O-GlcNAcylated c-myc levels in MCF-7 cells induced cell death. MCF-7 tumor cell death after 2 mM ketoconazole treatment was compared with MCF10A normal cell death by LDH cytotoxicity assay. After treatment of cells for 4 hr, extracellular media and Triton X-100 solubilized cells were obtained and oxidation of NADH to NAD+ in both fractions was monitored for 2 min at a 340 nm to obtain total (media+cells) LDH release.

SW480 colon cancer cells [9] = assay: QCM ECMatrix cell invasion assay; assay type: cell-based, human; settings: SW480, 100 μM, 72 hr
Description: as §5

HT29 colon cancer cells [10] = assay: QCM ECMatrix cell invasion assay; assay type: cell-based, human; settings: HT29, 100 μM, 72 hr
Description: as §5

A549 lung cancer cells = assay: Cell proliferation assay (MTT); assay type: cell-based; settings: Homo sapiens, A549, 50 μM for 72 hr
Description: as §4

H1437 lung cancer cells = assay: Cell proliferation assay (MTT); assay type: cell-based; settings: Homo sapiens, NCI-H1437, H1437, 50 μM for 72 hr
Description: as §4

[11] = tested on: Mia Paca-2 pancreatic cancer cells; assay: Cell proliferation assay (MTT); assay type: cell-based; settings: Homo sapiens, Mia Paca-2, 50 μM for 72 hr
Description: as §4

PANC1 cells = assay: Cell proliferation assay (MTT); assay type: cell-based; settings: PANC1, same treatments, 72 hr
Description: as §4

SW480 colon cancer cells [12] = assay: Wound healing assay (cell migration); assay type: cell-based, human; settings: SW480, 100 μM
Description: (§6) Wound healing assays were also carried out to verify inhibition of cell migration after ketoconazole treatment.

HT29 colon cancer cells [13] = assay: Wound healing assay (cell migration); assay type: cell-based, human; settings: HT29, 100 μM
Description: as §6

[14] = tested on: unmodified c-myc in MCF-7 cells; assay: Western blot of unmodified c-myc in MCF-7 cells; assay type: cell-based; settings: MCF-7, 4 hr, 2 mM, antibody Peptide #2-N
Description: as §2

[15] = tested on: PANC1 pancreatic cancer cells; assay: Wound healing assay (cell migration); assay type: cell-based; settings: PANC1, 100 μM
Description: as §6

[16] = tested on: Mia Paca-2 pancreatic cancer cells; assay: Wound healing assay (cell migration); assay type: cell-based; settings: Mia Paca-2, 100 μM
Description: as §6

[17] = MCF-7, 24 hr treatment, 2 mM, nuclear lysates, FIG. 5
[18] = MCF-7, 4 hr treatment, cell lysates, FIG. 6A
[19] = 2 mM, nuclear lysates, antibody Peptide #2-G, FIG. 6B

In the case of `CN(N=O)C(=O)N[C@H]1C(O)O[C@H](CO)[C@@H](O)[C@@H]1O` (mixture of isomers) [STZ, streptozotocin], the O-GlcNAcylated c-myc levels [1, 17] is reported as “failed to increase”.

In the case of `CNc1ncnc2c1ncn2[C@@H]1O[C@H](COP(=O)(O)O)[C@@H](O)[C@H]1O` [N6-methyladenosine 5′-monophosphate], the “Levels of O-GlcNAcylated p53” value [2] is reported as “increased”, the O-GlcNAcylated c-myc levels [1, 18] is reported as “failed to increase” and the O-GlcNAcylated c-myc levels [1, 17] is reported as “failed to increase”. For the same compound, the O-GlcNAcylated c-myc levels [3] was “failed to increase”.

For `CC(=O)Nc1nnc(S(N)(=O)=O)s1` [acetazolamide], the “Levels of O-GlcNAcylated p53” value [2] was “increased”, the O-GlcNAcylated c-myc levels [1, 18] was “failed to increase” and the “O-GlcNAcylated c-myc levels in nucleus” value ([1]; MCF-7, 24 hr, 2 mM, data not shown) was “did not increase”. The O-GlcNAcylated c-myc levels [3] was “failed to increase”.

In the case of `O=C1CC2(CCCC2)CC(=O)N1CCCCN1CCN(c2ncccn2)CC1` [buspirone], the O-GlcNAcylated c-myc level [1, 19] is reported as “did not increase”.

For `CC(=O)N1CCN(c2ccc(OCC3COC(Cn4ccnc4)(c4ccc(Cl)cc4Cl)O3)cc2)CC1` (stereo not shown) [ketoconazole], the inhibition at 50 µM (SW480 colon cancer cells [4]; Homo sapiens, SW480, 50 μM for 72 hr, MTT) was 63.3%, the cell proliferation (SW480 colon cancer cells [4]; SW480, 100 μM) was “inhibited” and the cell proliferation (HT29 colon cancer cells [5]; HT29, 100 μM) was “inhibited”. For the same compound, the inhibition at 50 µM (HT29 colon cancer cells [5]; Homo sapiens, HT-29, HT29, 50 μM for 72 hr, MTT) was 67.4%, the O-GlcNAcylated c-myc level [1, 19] was “dramatically increased” and the O-GlcNAcylated c-myc level ([1]; 2 mM, second antibody Peptide #1-G, FIG. 6C) was “dramatically increased”. For the same compound, the Thr-58-O-GlcNAcylated c-myc expression [6] was “failed to increase”, the “proliferation of MCF-7 breast cancer cells” value [7] was “inhibited” and the cell invasiveness [8] was “partially inhibited”. For the same compound, the cell invasiveness ([8]; listed as Ketoconazole) was “slight loss of cell invasiveness”, the “increased cell death in MCF-7 cells higher than in MCF10A cells” value (MCF-7 and MCF10A cells) was 84% and the inhibition at 100 µM (SW480 colon cancer cells [9]; Homo sapiens, read-out: inhibition of migration in cell invasion assay) was 100%. The cell invasiveness (SW480 colon cancer cells [9]) was “loss of cell invasiveness”, the cell invasiveness (HT29 colon cancer cells [10]) was “loss of cell invasiveness” and the inhibition at 100 µM (HT29 colon cancer cells [10]; Homo sapiens, HT-29, read-out: inhibition of migration in cell invasion assay) was 100%. It also gave an inhibition at 50 µM (A549 lung cancer cells) of 51.3%, an inhibition at 50 µM (H1437 lung cancer cells) of 44.9% and an inhibition at 50 µM [11] of 60.2%. For the same compound, the “inhibition of cell proliferation” value (PANC1 cells) was “failed to inhibit; also recorded: no significant differences”, the “Percent of cells migrated toward a scratched field” value (“Percent” for short) (SW480 colon cancer cells [12]; 0 hr) was 0% and the “Percent” value (SW480 colon cancer cells [12]; 24 hr) was 27%. For the same compound, the “Percent” value (HT29 colon cancer cells [13]; 0 hr) was 0%, the “Percent” value (HT29 colon cancer cells [13]; 24 hr) was 8% and the unmodified c-myc protein [14] was “no increase”. The “inhibition of cell migration” value [15] was “no significant differences”, the “% cells migrated toward a scratched field” value ([15]; 0 hr) was 0% and the “% cells migrated toward a scratched field” value ([15]; 24 hr) was 6%. For the same compound, the “% cells migrated toward a scratched field” value ([15]; 48 hr) was 11%, the inhibition at 100 µM ([16]; Homo sapiens, 24 and 48 hr, (36/46 × 100) and (43/55 × 100)) was 78% and the “% cells migrated toward a scratched field” value ([16]; 0 hr) was 0%. The “% cells migrated toward a scratched field” value ([16]; 24 hr) was 11.6%, the “% cells migrated toward a scratched field” value ([16]; 24 hr, listed as Ketoconazole) was 10% and the “% cells migrated toward a scratched field” value ([16]; 48 hr) was 12%.
